Assay results taken from patent US20080114017A1, “Novel Indolopyridines, Benzofuranopyridines and Benzothienopyridines” (priority 2005, published 2008).

Columns and labels:
[1] = test system: RKO human colon adenocarcinoma cells (RKO p27 subclone, uninduced); assay: Alamar Blue cell viability assay, anti-proliferative/cytotoxic activity, proliferating RKO p27 cells (uninduced); format: cell-based; details: RKOp27, absence of Ponasterone A, 72 hours incubation
Experimental: The anti-proliferative/cytotoxic activity of the compounds described herein can be tested on subclones of RKO human colon adenocarcinoma cells (Schmidt et al., Oncogene 19, 2423-2429; 2000) using the Alamar Blue cell viability assay (described in O'Brien et al. Eur J Biochem 267, 5421-5426, 2000). The compounds are dissolved as 10 mM solutions in DMSO and subsequently diluted in semi-logarithmic steps. DMSO dilutions are further diluted 1:100 into Dulbecco's modified Eagle's medium (DMEM) containing 10% fetal calf serum to a final concentration twice as much as the final concentration in the test. RKO subclones are seeded into 96 well flat bottom plates at a density of 4000 cells per well in a volume of 50 μl per well. 24 hours after seeding the 50 μl each of the compound dilutions in DMEM medium are added into each well of the 96 well plate. Each compound dilution is tested as quadruplicates. Wells containing untreated control cells are filled with 50 μl DMEM medium containing 1% DMSO. The cells are then incubated with the substances for 72 hours at 37° C. in a humidified atmosphere containing 5% carbon dioxide. To determine the viability of the cells, 10 μl of an Alamar Blue solution (Biosource) are added and the fluorescence is measured at an extinction of 544 nm and an emission of 590 nm. For the calculation of the cell viability the emission value from untreated cells is set as 100% viability and the emission rates of treated cells are set in relation to the values of untreated cells. Viabilities are expressed as % values.
The corresponding IC50 values of the compounds for anti-proliferative/cytotoxic activity are determined from the concentration-effect curves.
(§1) Representative IC50 values for anti-proliferation/cytotoxicity determined in the aforementioned assays follow from the following table A, in which the numbers of the compounds correspond to the numbers of the examples.

[2] = test system: RKO colon adenocarcinoma cells (RKOp27, induced); assay: Alamar Blue cell viability assay, cell cycle specific mode of action, RKO p27 cells arrested by Ponasterone A induced p27Kip1; format: cell-based; details: Homo sapiens, cells arrested by ectopic p27Kip1 induced with 10 μM Ponasterone A, 72 hours incubation
Experimental: To determine the cell cycle specific mode of action, subclones of RKO colon adenocarcinoma cells (RKOp27 as described by Schmidt et al. in Oncogene 19, 2423-2429; 2000) are seeded into 96 well flat bottom plates at a density of 16000 cells per well in a volume of 50 μl per well in DMEM growth medium with 10% FCS containing 10 μM Ponasterone A. 24 hours after seeding the 50 μl each of the compound dilutions in DMEM medium are added into each well of the 96-well plate. Each compound dilution is tested as quadruplicates. Wells containing untreated control cells are filled with 50 μl DMEM medium containing 1% DMSO. The cells are then incubated with the substances for 72 hours at 37° C. in a humidified atmosphere containing 5% carbon dioxide. To determine the viability of the cells, 10 μl of an Alamar Blue solution (Biosource) are added and the fluorescence is measured at an extinction of 544 nm and an emission of 590 nm. For the calculation of the cell viability the emission value from untreated cells is set as 100% viability and the emission rates of treated cells are set in relation to the values of untreated cells. Viabilities are expressed as % values. Viability is compared of proliferating cells grown in the absence of the inducer Ponasterone A, versus viability of cells arrested by the expression of ectopic p27Kip1 induced by Ponasterone A.
as §1

Compound	IC50 [2]	IC50 [1]
CN1C(=O)[C@@H]2Cc3c([nH]c4ccccc34)[C@@H](c3cccc(OC(F)(F)F)c3)N2C1=S [Compound 1, (3aS,10R)-2-Methyl-1-thioxo-10-(3-trifluoromethoxy-phenyl)-1,2,3a,4,9,10-hexahydro-2,9,10a-triaza-cyclopenta[b]fluoren-3-one]	> 100 µM	≤ 2 µM
COC(=O)c1cc(Cl)cc([C@@H]2c3[nH]c4ccccc4c3C[C@H]3C(=O)N(C)C(=S)N23)c1 [Compound 6, 3-Chloro-5-((3aS,10R)-2-methyl-3-oxo-1-thioxo-2,3,3a,4,9,10-hexahydro-1H-2,9,10a-triaza-cyclopenta[b]fluoren-10-yl)-benzoic acid methyl ester]	> 100 µM	≤ 2 µM

More lines, main results first:

IC50 [2]	Compound	IC50 [1]
> 100 µM	COC(=O)c1cccc([C@@H]2c3[nH]c4ccccc4c3C[C@H]3C(=O)N(C)C(=S)N23)c1 (racemic) [Compound 4, 3-((3aSR, 10RS)-2-Methyl-3-oxo-1-thioxo-2,3,3a,4,9,10-hexahydro-1H-2,9,10a-triaza-cyclopenta[b]fluoren-10-yl)-benzoic acid methyl ester]	≤ 2 µM
> 100 µM	COC(=O)c1cccc([C@@H]2c3[nH]c4ccccc4c3C[C@H]3C(=O)N(C)C(=S)N23)c1 [Compound 5, 3-((3aS,10R)-2-Methyl-3-oxo-1-thioxo-2,3,3a,4,9,10-hexahydro-1H-2,9,10a-triaza-cyclopenta[b]fluoren-10-yl)-benzoic acid methyl ester]	≤ 2 µM
> 100 µM	COC(=O)c1ccc(OC)c([C@@H]2c3[nH]c4ccccc4c3C[C@H]3C(=O)N(C)C(=S)N23)c1 [Compound 7, 4-Methoxy-3-((3aS,10R)-2-methyl-3-oxo-1-thioxo-2,3,3a,4,9,10-hexahydro-1H-2,9,10a-triaza-cyclopenta[b]fluoren-10-yl)-benzoic acid methyl ester]	≤ 2 µM
